Test results reported in patent EP2435019B1, “DODECA-2E,4E-DIENE AMIDES AND THEIR USE AS MEDICAMENTS AND COSMETICS” (Dr. August Wolff GmbH & Co. KG Arzneimittel, priority 2009, dated 2010).
Like-named read-outs stand apart in the source and are kept apart here.

Assays:
[1] = system: Arachidonoylethanolamide Transport (AEAT); assay: Cellular uptake of [3H]-AEA in U937 cells (assay C); format: cell-based; conditions: Homo sapiens, U-937; [3H]-AEA uptake, assay C (Tables 2 and 3)
FAAH = biological target: T1, FAAH (Sus scrofa, UniProt Q9TUI8); assay: Fatty acid amide hydrolase (FAAH) inhibition, pig brain homogenate (assay D); format: biochemical; conditions: 1 µM; pig brain homogenate (assay D)
T1 construct: 165 µl of diluted pig brain homogenate; from tissue; host or cells: pig brain homogenate
T1 sequence (Q9TUI8 1-579): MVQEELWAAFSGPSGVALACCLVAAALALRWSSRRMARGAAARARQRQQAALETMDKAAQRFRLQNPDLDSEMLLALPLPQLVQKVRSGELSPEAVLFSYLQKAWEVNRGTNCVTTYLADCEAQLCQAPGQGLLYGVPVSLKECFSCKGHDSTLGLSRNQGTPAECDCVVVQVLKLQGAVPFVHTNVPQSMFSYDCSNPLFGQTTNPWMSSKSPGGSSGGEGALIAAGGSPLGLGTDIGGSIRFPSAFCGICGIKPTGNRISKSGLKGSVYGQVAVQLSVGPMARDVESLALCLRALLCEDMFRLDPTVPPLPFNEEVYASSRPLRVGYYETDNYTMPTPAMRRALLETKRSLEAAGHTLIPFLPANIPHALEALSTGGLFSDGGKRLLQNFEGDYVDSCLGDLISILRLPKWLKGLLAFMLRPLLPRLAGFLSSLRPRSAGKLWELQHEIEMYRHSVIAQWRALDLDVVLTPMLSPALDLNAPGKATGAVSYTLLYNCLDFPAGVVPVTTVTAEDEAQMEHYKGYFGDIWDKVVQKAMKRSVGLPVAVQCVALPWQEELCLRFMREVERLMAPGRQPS
Procedure: FAAH activity was assessed using pig brain homogenate according to the method described by Omeir et al., Arachidonoyl ethanolamide-[1,2-14C] as a substrate for anandamide amidase. Life Sci. 1995;56(23-24):1999-2005, and adapted by Fowler et al., Ibuprofen inhibits rat brain deamidation of anandamide at pharmacologically relevant concentrations. Mode of inhibition and structure-activity relationship. J Pharmacol Exp Ther. 1997 Nov;283(2):729-34. Briefly, 10 µl of test compounds at the adequate concentration or solvent were incubated at 37°C for 20 min with 165 µl of diluted pig brain homogenate in 10 mM Tris-HCl and 1 mM EDTA, pH 7.6 (corresponding to 100 µg/ml of total protein), 1% w/v fatty acid free BSA (Sigma, San Louis, MO, US) and 25 µl of a mixture 1:1 of nonradioactive AEA [^3H]-AEA (60 Ci mmol^-1) (concentration in the assay was 2 µM). Successively, 400 µl of a mixture 1:1 (v/v) of methanol:chloroform was added at each sample and, after vigorous vortexing, aqueous and organic phases were separated by centrifugation at 10000 rpm for 10 min. The radioactivity associated to the [^3H]-ethanolamine (produced by FAAH-catalysed breakdown of [^3H]-AEA) was measured upon addition of 3 ml of Ultima Gold scintillation liquid (Perkin Elmer, Waltham, MA, US) to 200 µl of the aqueous (upper) phase, using a Beckman LS6500 scintillation counter. Results were expressed as % of FAAH activity vs. pig brain homogenate treated only with solvent.

CB2 = CB2 (Homo sapiens, UniProt P34972); assay: Radioligand displacement assay on CB2 receptor; format: binding; design: purchased Perkin Elmer RBXCB2M; conditions: for Ki: displacement of 0.11 nM [3H]CP55,940, membrane recombinantly over-expressing CB2, read-out: Receptor affinity Ki CB2
Procedure: (§1) For the CB1 receptor, binding experiments were performed in the presence of 0.39 nM of the radioligand [^3H]CP55,940 (168 Ci/mmol) (Perkin Elmer, Waltham, MA, US) at 30°C in siliconized glass vials together with 7.16 µg of membrane recombinantly over-expressing CB1 (No. RBHCB1M, Perkin Elmer, Waltham, MA, US), which was resuspended in 0.2 mL (final volume) binding-buffer (50 mM TRIS-HCl, 2.5 mM EGTA, 5 mM MgCl2, 0.5 mg/mL fatty acid free BSA, pH 7.4). Test compounds were present at varying concentrations and the nonspecific binding of the radioligand was determined in the presence of 10 µM CP55,940 (Tocris Cookson Ltd., Bristol, UK). After 1.5 h incubation, the suspension was rapidly filtered through 0.05% polyethylenimine pre-soaked GF/C glass fiber filters on a 96-well cell harvester and washed nine times with 0.5 mL ice-cold washing-buffer (50 mM TRIS-HCl, 2.5 mM EGTA, 5 mM MgCl2, 2% BSA, pH 7.4). Radioactivity on filters was measured with a Beckman LS 6500 scintillation counter in 3 mL Ultima Gold scintillation liquid (Perkin Elmer, Waltham, MA, US). Data collected from three independent experiments performed in triplicates were normalized between 100% and 0% specific binding for [^3H]CP55,940. […] Derived from the dissociation constant (KD) of [^3H]CP55,940 and the concentration-dependent displacement (IC50 value), inhibition constants (Ki) of competitor compounds were calculated using the Cheng-Prusoff equation [Ki = IC50/(1+ L/KD)].
For CB2-receptor binding studies 3.8 µg of membrane recombinantly over-expressing CB2 (No. RBXCB2M, Perkin Elmer, Waltham, MA, US) were resuspended in 0.6 mL binding buffer (see above) together with 0.11 nM of the radioligand [^3H]CP55,940. The CB2-binding assay was conducted in the same manner as for CB1.

[2] = Critical micelle concentration (CMC) measurement, dye micellization; format: physicochemical; conditions: fluorescein dye micellization in water, pH 6.9, room temperature
Procedure: Dye micellization was carried out with a modified version of the method described by Eliyahu et al., Novel dextran-spermine conjugates as transfecting agents: comparing water-soluble and micellar polymers. […] Experiments were carried out on 96-well microtiter plates (excitation at 485 nm, emission at 535 nm). Since the emission of fluorescein is pH-dependent, the pH of the mixture was kept constant at 6.9. The CMC range was determined as the concentration range where the first statistically significant increase in fluorescence was detected.

CB1 = biological target: T2, CB1 (Homo sapiens, UniProt P21554); assay: Radioligand displacement assay on CB1 receptor; format: binding; conditions: for Ki: displacement of 0.39 nM [3H]CP55,940, membrane recombinantly over-expressing CB1, read-out: Receptor affinity Ki CB1
T2 construct: purchased Perkin Elmer RBHCB1M
Procedure: as §1

NO2^- production = assay: NO2- production in LPS-stimulated human macrophages (Griess reagent); format: cell-based; conditions: Figure 5; LPS 500 ng/ml; 5 µM for 18 h
Procedure: (§2) • Figure 1: AEA re-uptake inhibition of 2E,4E-dieneamides 1 and 9 into human primary monocytes and U937 cells. […] Data are mean values ± SEM of 3 independent experiments in a sigmoidal dose-response curve. • Figure 2: Concentration-dependent effects of 4 and 5 on FAAH activity. […] The maximal inhibition (32%) of 5 was measured at 1 µM. Data are mean values ± SEM of 3 independent experiments. • Figure 3: Effects of low nM concentrations of N-alkylamide 7 on FAAH activity alone and in combination with the FAAH inhibitor URB597. […] Data are mean values ± SEM of 3 independent experiments. • Figure 4: 1 and 9 inhibit LPS-induced TNF-alpha release into culture medium (measured by ELISA). Human macrophages (10^6 cells) were stimulated with LPS (500 ng/ml) and treated with UCM707 and/or compounds 1 and 9 at 5 µM for 18 h. N = 3 ± SEM. • Figure 5: UCM707 (positive control) and compounds 1 and 9 diminish NO2^- production. Human macrophages (10^6 cells) were stimulated with LPS (500 ng/ml) and treated with UCM707 and/or compounds 1 and 9 at 5 µM for 18 h. Culture supernatants were assayed for nitrite levels, using the Griess reagent as a reflection of NO production. Results are the mean ± SEM of four independent experiments performed in duplicate • Figure 6: In CB receptor expressing human HaCaT keratinocytes (10^6 cells) UCM707 (control) 1 and 9 like the endocannabinoid anandamide (each 5 µM) inhibited tolerogen (10 µg/ml) induced chemokine IL-8 (6h stimulation and incubation). N = 3 ± SEM.

[3] = system: Arachidonoylethanolamide Transport (AEAT); assay: Cellular uptake of [3H]-AEA in U937 cells (assay C); format: cell-based, Human; conditions: Figure 1(b); mean ± SEM of 3 independent experiments; read-out: EC50 value, AEA re-uptake inhibition
Procedure: 5x10^5 cells were collected and suspended in 500 µL of sterile PBS (Sigma, San Louis, MO, US) using glass silanized tubes. Cells were pre-incubated 10 min at 37°C in presence of test compounds in a concentration range of 10^-8 - 10^-4 M or in presence of the same amount of solvent (control). Then a mixture of 50 nM [^3H]-AEA (60 Ci/mmol) (American Radiolabeled Chemicals, Inc., San Louis, MO, US) and 50 nM of nonradioactive AEA (Tocris Cookson Ltd., Bristol, UK) was added and samples were incubated at 37°C for different times in the range of 1-60 min. The reaction was stopped by rapid filtration over Whatman GF/C filters pre-soaked in 0,25 % BSA. […] The filters-bound radioactivity was measured using a Beckman LS6500 scintillation counter. Results were expressed as % of AEA uptake versus cells treated with solvent and the EC50 and IC50 values were calculated from the sigmoidal curves, which were generated using the GraphPad Prism (GraphPad Software, San Diego, CA, US).

IL-8 = assay: Induced chemokine IL-8 in HaCaT keratinocytes; format: cell-based, human; conditions: Figure 6, 5 µM, tolerogen 10 µg/ml, 6h
Procedure: as §2

[3H]-AEA uptake = Cellular uptake of [3H]-AEA in human primary monocytes (assay C); format: cell-based; conditions: Figure 1(a), 1 µM
Procedure: as §2, with “Results are the mean ± SEM of four independent experiments performed in duplicate • Figure 6: In CB receptor expressing human HaCaT keratinocytes (10^6 cells) UCM707 (control) 1 and 9 like the endocannabinoid anandamide (each 5 µM) inhibited tolerogen (10 µg/ml) induced chemokine IL-8 (6h stimulation and incubation). N = 3 ± SEM.” left out
Human lymphoma U937 cells were grown in RPMI 1640 medium (Invitrogen, Basel, Switzerland) supplemented with 10% fetal bovine serum, […] fungizone (amphotericin B), 100 units/ml penicillin, 100 µg/ml streptomycin, and 2 mM L-glutamine (all from Invitrogen) and selected for the cellular AEA uptake assay. […] The filters-bound radioactivity was measured using a Beckman LS6500 scintillation counter. Results were expressed as % of AEA uptake versus cells treated with solvent and the EC50 and IC50 values were calculated from the sigmoidal curves, which were generated using the GraphPad Prism (GraphPad Software, San Diego, CA, US).

T2 sequence (P21554 whole entry): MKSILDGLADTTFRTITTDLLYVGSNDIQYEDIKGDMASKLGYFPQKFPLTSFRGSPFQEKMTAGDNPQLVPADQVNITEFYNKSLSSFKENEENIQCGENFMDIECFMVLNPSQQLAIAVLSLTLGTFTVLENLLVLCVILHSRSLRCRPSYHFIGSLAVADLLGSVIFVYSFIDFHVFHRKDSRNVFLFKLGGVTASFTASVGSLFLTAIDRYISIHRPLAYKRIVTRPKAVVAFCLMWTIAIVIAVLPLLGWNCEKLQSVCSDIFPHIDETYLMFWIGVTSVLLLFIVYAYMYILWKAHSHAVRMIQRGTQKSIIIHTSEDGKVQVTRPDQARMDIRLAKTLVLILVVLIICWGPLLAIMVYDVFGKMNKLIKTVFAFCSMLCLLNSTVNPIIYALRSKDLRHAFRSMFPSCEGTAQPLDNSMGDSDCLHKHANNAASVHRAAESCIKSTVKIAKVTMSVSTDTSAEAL
CB2, sequence (P34972 whole entry): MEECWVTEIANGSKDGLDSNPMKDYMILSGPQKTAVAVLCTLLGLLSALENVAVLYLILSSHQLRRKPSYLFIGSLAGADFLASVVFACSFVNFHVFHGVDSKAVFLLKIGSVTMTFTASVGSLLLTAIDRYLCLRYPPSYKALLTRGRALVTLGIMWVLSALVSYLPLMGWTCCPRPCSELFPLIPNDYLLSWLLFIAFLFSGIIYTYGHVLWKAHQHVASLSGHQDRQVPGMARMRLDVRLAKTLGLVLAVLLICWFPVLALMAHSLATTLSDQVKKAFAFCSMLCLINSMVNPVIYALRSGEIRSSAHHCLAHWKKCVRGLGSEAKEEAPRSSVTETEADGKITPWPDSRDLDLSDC

SMILES: CCCCCCC/C=C/C=C/C(=O)N1CCCC1 [Compound D, (2E,4E)-1-(pyrrolidin-1-yl)dodeca-2,4-dien-1-one]
- EC50 [1]: > 10 µM
- FAAH inhibition at 1 µM (FAAH): <10 % of control
- Ki (CB2): < 10 µM
- CMC [2]: >5 µM
- Ki (CB1): > 20 µM

SMILES: CCCCCCC/C=C/C=C/C(=O)N1CCCCC1 [Compound E, (2E,4E)-1-(piperidin-1-yl)dodeca-2,4-dien-1-one]
- EC50 [1]: > 10 µM
- FAAH inhibition at 1 µM (FAAH): <10 % of control
- Ki (CB2): 2.64 ± 0.224 µM
- affinity towards CB2 (in words) (CB2; summary of Table 3): moderate affinity
- CMC [2]: >5 µM
- Ki (CB1): 2.19 ± 0.18 µM
- affinity towards CB1 (in words) (CB1; summary of Table 3): moderate affinity

SMILES: CCCCC/C=C\C/C=C\C/C=C\C/C=C\CCCC(=O)NCc1ccoc1 [UCM707, reference compound]
- NO2^- production (NO2^- production): diminish
- EC50 [3]: 1.42 ± 0.296 µM
- tolerogen induced chemokine IL-8 (IL-8): inhibited
- [3H]-AEA uptake inhibition ([3H]-AEA uptake): clearly less active

SMILES: CCCCC/C=C\C/C=C\C/C=C\C/C=C\CCCC(=O)NCCO [anandamide, N-arachidonoylethanolamide, reference compound]
- tolerogen induced chemokine IL-8 (IL-8): inhibited
